Measurements taken from ChEMBL document CHEMBL4376842, “Synthesis and Biological Evaluation of Subglutinol Analogs for Immunomodulatory Agents” (J Med Chem, 2020).
Activity calls are given as the source filed them. No cut-off for these calls is given here.

Tests used:
[1] = organism: Mus musculus; assay: (§1) Immunosuppressive activity in OT2 mouse CD4-positive T cells derived OVA(323 to 339)-activated Th-differentiating media cultured Th17 cells assessed as reduction in pDBU/ionomycin-stimulated 1L17A production up to 10 uM treated last 2 days of 5 days differentiation followed by pDBU/ionomycin stimulation on day 5 measured after 4 hrs by anti-mouse IL17A-APC staining based flow cytometry; format: functional
[2] = organism: Mus musculus; assay: as §1, with “Th1” for “Th17”, “IFNgamma” for “1L17A”, “IFNgamma-Pacific Blue/IL-2-APC” for “IL17A-APC”; format: functional
[3] = tested on: Mus musculus; assay: (§2) Immunosuppressive activity in MOG/CFA/Ptx-induced C57B/6 mouse model of experimental autoimmune encephalitis assessed as granulocytic myeloid-derived suppressor cells at 4 umol, ip administered on day 4 and 6 starting from 2 days post-disease induction and measured on day 7 post-last disease induction by immunostaining-based flow cytometry (reference value: 28.1%); format: functional
[4] = as §1, with “Th1” for “Th17”, “IFNgamma” for “1L17A”, “at early stage by measuring INFgamma level at 100 nM” for “up to 10 uM”, “IFNgamma-Pacific Blue/IL-2-APC” for “IL17A-APC”, “cytometry (reference value: 57.3%)” for “cytometry”; format: functional; design: scale not given: the % may be the effect or the level left
[5] = tested on: Mus musculus; assay: as §2, with “inflammatory neutrophil” for “granulocytic myeloid-derived suppressor”, “35.2%)” for “28.1%)”; format: functional
[6] = tested on: Mus musculus; assay: Immunosuppressive activity in MOG/CFA/Ptx-induced C57B/6 mouse model of experimental autoimmune encephalitis assessed as time of disease onset at 4 umol, ip administered on day 4, 6, and 8 starting from 2 days post-disease induction and measured daily up to 50 days; format: functional
[7] = as §1, with “Th1” for “Th17”, “IFNgamma” for “1L17A”, “at late stage by measuring INFgamma level at 100 nM” for “up to 10 uM”, “IFNgamma-Pacific Blue/IL-2-APC” for “IL17A-APC”, “cytometry (reference value: 4.34%)” for “cytometry”; format: functional; design: scale not given: the % may be the effect or the level left
[8] = tested on: Mus musculus; assay: as §2, with “live” for “granulocytic myeloid-derived suppressor”, “live/dead staining-based” for “immunostaining-based”, “87.5%)” for “28.1%)”; format: functional
[9] = Toxicity in MOG/CFA/Ptx-induced C57B/6 mouse model of experimental autoimmune encephalitis assessed as adverse changes at 4 umol, ip administered on day 4, 6, and 8 starting from 2 days post-disease induction and measured up to 50 days; format: organism-based; settings: in vivo
[10] = tested on: Mus musculus; assay: as §2, with “CD11b+ F4/80+” for “granulocytic myeloid-derived suppressor”, “15%)” for “28.1%)”; format: functional
[11] = tested on: Mus musculus; assay: as §2, with “macrophage” for “granulocytic myeloid-derived suppressor”, “10.5%)” for “28.1%)”; format: functional
[12] = tested on: Mus musculus; assay: as §2, with “change in macrophage composition” for “granulocytic myeloid-derived suppressor cells”, “cytometry” for “cytometry (reference value: 28.1%)”; format: functional, organism-based
[13] = as §1, with “by measuring IL17A level at 100 nM” for “up to 10 uM”, “cytometry (reference value: 1.44%)” for “cytometry”; format: functional; design: scale not given: the % may be the effect or the level left
[14] = Cytotoxicity against OT1 mouse CD8-positive T cells assessed as cell viability at 100 nM measured after 48 hrs by live/dead viability staining based flow cytometry (reference value: 39.5%); settings: read-out: Activity
[15] = Cytotoxicity against OT1 mouse CD8-positive T cells assessed as cell viability at 10 uM measured after 48 hrs by live/dead viability staining based flow cytometry (reference value: 39.5%); settings: read-out: Activity
[16] = Cytotoxicity against OT2 mouse CD4-positive T cells assessed as cell viability at 100 nM measured after 48 hrs by live/dead viability staining based flow cytometry (reference value: 57.2%); settings: read-out: Activity
[17] = as §1, with “Th1” for “Th17”, “IFNgamma” for “1L17A”, “at early stage by measuring INFgamma level at” for “up to”, “IFNgamma-Pacific Blue/IL-2-APC” for “IL17A-APC”, “cytometry (reference value: 57.3%)” for “cytometry”; format: functional; design: scale not given: the % may be the effect or the level left
[18] = as §1, with “Th1” for “Th17”, “IFNgamma” for “1L17A”, “at late stage by measuring INFgamma level at” for “up to”, “IFNgamma-Pacific Blue/IL-2-APC” for “IL17A-APC”, “cytometry (reference value: 4.34%)” for “cytometry”; format: functional; design: scale not given: the % may be the effect or the level left
[19] = tested on: Mus musculus; assay: as §2, with “change in neutrophil composition” for “granulocytic myeloid-derived suppressor cells”, “cytometry” for “cytometry (reference value: 28.1%)”; format: functional, organism-based
[20] = Cytotoxicity against OT2 mouse CD4-positive T cells assessed as cell viability at 10 uM measured after 48 hrs by live/dead viability staining based flow cytometry (reference value: 57.2%); settings: read-out: Activity
[21] = tested on: Mus musculus; assay: as §2, with “change in dendritic cell composition” for “granulocytic myeloid-derived suppressor cells”, “cytometry” for “cytometry (reference value: 28.1%)”; format: functional, organism-based
[22] = tested on: Mus musculus; assay: (§3) Immunosuppressive activity in MOG/CFA/Ptx-induced C57B/6 mouse model of experimental autoimmune encephalitis assessed as change in granulocytic myeloid-derived suppressor cell composition at 4 umol, ip administered on day 4 and 6 starting from 2 days post-disease induction and measured on day 7 post-last disease induction by immunostaining-based flow cytometry; format: functional, organism-based
[23] = tested on: Mus musculus; assay: as §3, with “regulatory T” for “granulocytic myeloid-derived suppressor”; format: functional, organism-based
[24] = tested on: Mus musculus; assay: as §3, with “T” for “granulocytic myeloid-derived suppressor”; format: functional, organism-based
[25] = as §1, with “by measuring IL17A level at” for “up to”, “cytometry (reference value: 1.44%)” for “cytometry”; format: functional; design: scale not given: the % may be the effect or the level left
[26] = tested on: Mus musculus; assay: Immunosuppressive activity in MOG/CFA/Ptx-induced C57B/6 mouse model of experimental autoimmune encephalitis assessed as decrease in clinical symptoms at 4 umol, ip administered on day 4, 6, and 8 starting from 2 days post-disease induction and measured daily up to 50 days; format: functional, organism-based
[27] = organism: Mus musculus; assay: as §1, with “Th1” for “Th17”, “IFNgamma” for “1L17A”, “production” for “production up to 10 uM”, “IFNgamma-Pacific Blue/IL-2-APC” for “IL17A-APC”; format: functional

For `CC[C@@H]1C[C@@]2(C)[C@@H]3CCC[C@@H](Cc4c(O)c(C)c(C)oc4=O)[C@@]3(C)CC[C@@H]2O1`, the Activity [1] was “Active” and the Activity [2] was “Active”.

For `Cc1oc(=O)c(C[C@H]2CCC[C@H]3CCCC[C@@]32C)c(O)c1C`, the Activity [1] was “Active” and the Activity [2] was “Active”.

With `Cc1oc(=O)c(C[C@@H]2CCC[C@H]3CCCC[C@@]32C)c(O)c1C` the Activity [3] was 2.41%, the Activity [4] was 18.7% and the Activity [5] was 74.7%. It also gave a Time [6] of 15 days, an Activity [7] of 1.03% and an Activity [8] of 88.8%. For the same molecule, the Activity [9] was “Non-Toxic”, the Activity [10] was 11% and the Activity [11] was 4%. For the same molecule, the Activity [12] was “inactive”, the Activity [13] was 1.33% and the viability at 48 h, 0.1 µM [14] was 42.6%. The viability at 48 h, 10 µM [15] was 8.85%, the viability at 48 h, 0.1 µM [16] was 60.6% and the Activity [17] was 0.47%. The Activity [18] was 0%, the Activity [19] was “inactive” and the viability at 48 h, 10 µM [20] was 41.5%. The Activity [21] was “inactive”, the Activity [22] was “inactive” and the Activity [23] was “inactive”. For the same molecule, the Activity [24] was “inactive”, the Activity [25] was 2.01% and the Activity [26] was “inactive”.

In the case of `C=C1CC[C@H]2[C@]3(C)C[C@@H](C=C(C)C)O[C@H]3CC[C@]2(C)[C@@H]1Cc1ccccc1`, the Activity [1] is reported as “Active” and the Activity [2] is reported as “Active”.

With `CC[C@@H]1C[C@@]2(C)[C@@H]3CCC[C@H](Cc4c(O)c(C)c(C)oc4=O)[C@@]3(C)CC[C@@H]2O1` the Activity [1] was “Active” and the Activity [2] was “Active”.

For `C=C1CC[C@H]2[C@]3(C)C[C@@H](C=C(C)C)O[C@H]3CC[C@]2(C)[C@@H]1Cc1c(O)c(C)c(C)oc1=O` [SUBGLUTINOL A], the Activity [4] was 0.84%, the Activity [7] was 0% and the Activity [13] was 0.017%. For the same molecule, the viability at 48 h, 0.1 µM [14] was 14.5%, the viability at 48 h, 10 µM [15] was 7.19% and the Activity [27] was “Dose-dependent effect”. It also gave a viability at 48 h, 0.1 µM [16] of 46%, an Activity [17] of 1.54% and an Activity [18] of 0%. It also gave a viability at 48 h, 10 µM [20] of 24.4% and an Activity [25] of 0.064%.

In the case of `CC(C)=CC1Cc2c(ccc3c(Cc4c(O)c(C)c(C)oc4=O)cccc23)O1` (stereo not given), the Activity [1] is reported as “Active” and the Activity [2] is reported as “Active”.
